Experimental data published in patent publication US6692754B1, “Cosmetic composition” (Kyowa Hakko Kogyo Co., Ltd., priority 1999, dated 2004).

Key:
mouse epidermal cells = assay: Mouse epidermal cell proliferation activity (MTT); format: cell-based, C3H mouse; details: for Epidermal Cell Proliferation Activity: 6 days, 0 μM = 100
Procedure: Epidermis was peeled from 3 days old C3H mouse according to Method of Tanigaki, et al., [The Japanese Journal of Dermatology, 1145-1152 (1989)].
The epidermis was treated with 0.25% trypsin and centrifuged at 1500 rpm for 5 minutes to obtain the cells. The cells were inoculated onto DMEM medium containing 10% fetal bovine serum and cultivated at 37° C. for 1 day to give the mouse epidermal cells.
The mouse epidermal cells were cultivated on MCDB 153 medium free of serum containing the test compound (Hyp or N-Acetyl-Hyp) for 6 days, mixed with 1/10 volume of 5 mg/ml MTT reagent in phosphate buffer (pH 7.4, free of calcium and magnesium), and then cultivated in an atmosphere of 5% CO2 at 37° C. for 4 hours. After removing the medium, MTT formazan in the cell was extracted with isopropanol containing 0.4 mol/L hydrochloric acid, and the absorbance at 570 nm was measured in comparison with that of 630 nm.

[1] = tested on: Fibroblast derived from human neonate; assay: Collagen synthesis promotion activity in human fibroblast (3H-glycine incorporation, collagenase digestion); format: cell-based; details: for Collagen Synthetic Promotion Activity: 72 hours, relative to control (0 mM = 100); for Collagen synthetic promotion activity (in words): human fibroblast
Procedure: Assay of synthetic collagen was conducted by the following method according to “Experimental Method of Collagen” (Written by Nagai, et al., Kodansha Scientific).
Fibroblast derived from human neonate (Sanko Junyaku Co., Ltd.) was cultivated in DMEM medium [Virology, 8, 396 (1959)] containing 10% fetal bovine serum under conditions of 5% CO2 at 37° C. by the stationary phase. ^3H marked glycine and a test compound was added thereto, and further cultivated for 72 hours. DMEM medium was prepared by mixing Dulbecco's Modified Eagle's Medium “Nissui” (2) (manufactured by Nissui Pharmaceutical) with 4 mmol/L glutamine, an optimum dose of sodium hydrogencarbonate, 10 mmol/L HEPES, 50 U/ml penicillin G potassium, 50 μg/ml streptomycin and 10% fetal bovine serum.
To the resultant culture broth was added 500 μmol/L phenylmethanesulfonyl fluoride (PMSF), and the cells and medium were recovered, crashed with a sonicater and the protein was extracted.
To the extract were added 100 μmol/L bovine serum albumin (BSA) and 10% trichloroacetic acid (TCA), and the resultant mixture was centrifuged at 3000 rpm for 5 minutes to recover the precipitate.
To the precipitate was added 0.2 mol/L sodium hydroxide at a density of 8 μl per 1 cm^2 of the bottom area of culture vessel used for said cultivation, and the resultant mixture was neutralized with an equivalent amount of 1 mol/L phosphate buffer.
To 100 μl of the resultant protein solution were added 25 mmol/L calcium chloride (10 μmol/L), 62.5 mmol/L N-ethylmaleimide (20 μmol/L) and 20 units of collagenase (manufactured by Wako Pure Chemical Industries, Ltd.; for analyzing the collagen), and the resultant mixture was allowed to react at 37° C. for 90 minutes.
The reaction mixture was filtered with an ultrafilter (molecular weight: 10,000), and the protein fraction of the filtrate was subjected to radiation activity (CDP) assay, which was assigned as freshly prepared collagen. The radiation activity (NCDP) of the non-filtered protein fraction was assayed, and collagen synthetic ratio was calculated according to the following formula 1.
Relative collagen synthetic promotion activity (change in the collagen synthesis) was calculated according to the following formula 2, comparing with the relative value of the collagen synthetic ratio of the test compounds against control. [formula] [formula]

[2] = tested on: skin of cubital fossa of healthy female panelists; assay: Evaluation of moisture retention function (1): continuous application, skin conductivity (SKICON-200); format: in vivo, human
Procedure: Change in the moisture retention function by continuous use was examined for the evaluation of the skin quality-improving effect of Compositions (1)-(8) prepared in Examples 1-8. The compositions are applied to the test part/cubital fossa of 4 healthy female panelists in 23-28 years old in an amount of 2 μl/cm^2 twice a day in the morning and evening for 3 weeks or 2 months. Moisture content in the test part before the application of the cosmetic composition was measured in the morning with the elapse of time. The probe was contacted vertically on the test part, and the skin conductivity (=moisture content) was assayed with SKICON-200 (manufactured by IBS) as a measuring machine. When the measured value is high, it means that the moisture content is high. Change in the skin conductivity (relative conductivity) on the test part was calculated according to the following formula 3, as a relative value to the change in the conductivity on the non-treated part. [formula]

[3] = tested on: epidermal keratinized cells derived from human neonate; assay: Human epidermal cell proliferation activity (MTT method); format: cell-based; details: for Epidermal Cell Proliferation Activity: 4 days, 0 mM = 100
Procedure: The human epidermal cell proliferation activity was assayed according to MTT method [Cell Culture III, 4477-4482 (1984)] by incorporating 3-(4,5-dimethylthiazol-2-yl)-2,5-diphenyltetrazolium bromide (MTT) into cells and measuring the resultant MTT formazan by colorimetry at the wave length of 570 nm (Reference, 650 nm).
That is, epidermal keratinized cells derived from human neonate (Sanko Junyaku Co., Ltd.) was cultivated in KGM medium (Sanko Junyaku Co., Ltd.) in an atmosphere of 5% CO2 at 37° C. by the stationary phase, mixed with Hyp and N-Acetyl-Hyp and cultivated for 4 days. Then, the culture broth was mixed with 1/10 volume of 5 mg/ml MTT reagent in a phosphate buffer (pH 7.4, free of calcium and magnesium), and cultivated in an atmosphere of 5% CO2 at 37° C. for 4 hours. After removing the medium, MTT formazan in the cell was extracted with isopropanol containing 0.4 mol/L hydrochloric acid, and the absorbance at 570 nm was measured in comparison with that of 630 nm.

[4] = tested on: skin of cubital fossa of healthy female panelists; assay: Evaluation of moisture retention function (2): single application, skin conductivity; format: in vivo, human
Procedure: Concentration dependency on moisture retention effect of N-Acetyl-Hyp was evaluated by the single application. The moisture retention was assayed on the test part/cubital fossa of 12 healthy female panelists in 23-32 years old, and each of the test compositions was applied thereto in an amount of 2 μl/cm^2 and allowed to leave. Three hours later, the moisture content of the test part was measured, and the moisture retention effect was evaluated in terms of the relative conductivity when the moisture content before the application was defined as 100%.

Structure (SMILES) | Epidermal proliferation activity (in words) (mouse epidermal cells) | Epidermal Cell Proliferation Activity (mouse epidermal cells; 1 μM) | Epidermal Cell Proliferation Activity (mouse epidermal cells; 3 μM) | Epidermal Cell Proliferation Activity (mouse epidermal cells; 10 μM) | Collagen Synthetic Promotion Activity ([1]; 0.1 mM test compound) | Collagen Synthetic Promotion Activity ([1]; 1 mM test compound) | Collagen synthetic promotion activity (in words) [1] | Skin moisture content / moisture retention function on continuous application (in words) [2] | Concentration dependence of proliferation activity [3] | Epidermal cells proliferation activity (in words) [3] | Epidermal Cell Proliferation Activity ([3]; 10 mM) | Epidermal Cell Proliferation Activity ([3]; 100 mM) | Moisture retention improving effect compared with collagen [2] | Relative Conductivity ([4]; 1% N-Acetyl-Hyp, single application 2 μl/cm2, three hours later, before application = 100%) [%] | Relative Conductivity ([4]; 3% N-Acetyl-Hyp, single application, three hours later) [%] | Relative Conductivity ([4]; 5% N-Acetyl-Hyp, single application, three hours later) [%] | Relative Conductivity ([4]; 10% N-Acetyl-Hyp, single application, three hours later) [%] | Moisture retention effect by single treatment (in words) ([4]; single treatment)
O=C(O)[C@@H]1C[C@@H](O)CN1 [Hyp, trans-4-hydroxy-L-proline] | found | 88.6 | 107.5 | 126 | 108.3 | 117.1 | observed | an improvement in the moisture retention function was observed | Proliferation activity depending on the concentration was found | observed | 111.6 | 135.1 | – | – | – | – | – | –
CC(=O)N1C[C@H](O)C[C@H]1C(=O)O [N-Acetyl-Hyp, N-acetyl-trans-4-hydroxy-L-proline] | found | 110.7 | 118.2 | 121.9 | 121.1 | 119.7 | observed | an improvement in the moisture retention function was observed | – | observed | 108.7 | 85.9 | an improving effect exceeding that of collagen was observed | 100 | 129 | 186 | 189 | concentration dependent-moisture retention effect
